Here are results for 4 substances from article PMC10321287, “β-amyloid binds to microglia Dectin-1 to induce inflammatory response in the pathogenesis of Alzheimer's disease” (International Journal of Biological Sciences, 2023).

In data set [1] the test system is Dectin-1. Description: Co-IP of APP/β-amyloid and Dectin-1 in brain lysates. Conditions: lysates from WT and Aβ42 brain tissues, Protein A magnetic beads. In kind it is binding, mice. As for the experimental part: The triggering receptor expressed on myeloid cells 2 (Trem2) is a microglial surface receptor genetically linked to the risk of AD [28]. Most Aβ functions in microglia are thought to be mediated by its binding to Trem2 [29]. […] Trem2 is the currently reported microglia receptor that can directly bind to Aβ, and we used it as a positive control in this experiment. […] Next, we performed a protein interaction analysis using Co-IP. APP/β-amyloid was added to Protein A magnetic beads as a bait protein, and lysates from WT and Aβ42 brain tissues were added. […] In turn, we could also capture the expression of APP/β-amyloid protein using Dectin-1 as a bait protein (Figure 6C). […] Therefore, we used surface plasmon resonance (SPR) to identify direct Aβ42-Dectin-1 interactions at the molecular level. […] Nuclei are counterstained with DAPI (blue) [scale bar = 5 μm]. (B) Bio-Aβ42 is added to streptavidin-agarose beads and incubated. Biotin alone was used as control. Lysates prepared from BV2 cells were added to beads. The eluent was loaded onto a polyacrylamide gel for western blot analysis. Total lysates were used as input controls. Trem2 was used as a positive control. (C) The Dectin-1-APP/ β-amyloid interaction is analyzed by co-immunoprecipitation in the brains of WT and model mice. […] Mean KD constant derived from five separate experiments. (E) 3D binding model of dectin-1 and amyloid beta peptide. […]

Data set [2] relates to Dectin-1. Description: Pull-down with Bio-Aβ42 from BV2 lysates. Type of data set: binding. Conditions: 100 µL of 20 μM biotinylated Aβ42 on streptavidin-agarose beads, lysate 24 h at 4°C; biotin control; Trem2 positive control. Here is the method: Lysates prepared from microglia cells and mouse brain tissues were then added to the streptavidin-agarose beads with biotinylated- Aβ42. The mixture was incubated for 24h at 4°C under gentle rocking. Samples were then spun and washed 3 times. Then, 5x loading buffer was added in the elution buffer and boiled for 10min, and the samples were used for western blot analysis. Total lysates were used as an input control.
Nuclei are counterstained with DAPI (blue) [scale bar = 5 μm]. (B) Bio-Aβ42 is added to streptavidin-agarose beads and incubated. Biotin alone was used as control. Lysates prepared from BV2 cells were added to beads. The eluent was loaded onto a polyacrylamide gel for western blot analysis. Total lysates were used as input controls. Trem2 was used as a positive control. (C) The Dectin-1-APP/ β-amyloid interaction is analyzed by co-immunoprecipitation in the brains of WT and model mice. […] Mean KD constant derived from five separate experiments. (E) 3D binding model of dectin-1 and amyloid beta peptide. The backbones of dectin-1 and amyloid beta peptide are shown as cartoons. The residues in dectin-1 are shown as cyan sticks, whereas the residues in amyloid beta-peptide are shown as wheat sticks. The hydrogen bonds are depicted as red dashed lines and the salt bridges are depicted as blue dashed lines.

Data set [3] deals with Syk. Description: Syk phosphorylation in BV2 cells (western blot). Conditions: 20 µM Bio-Aβ42, 45 min. In kind it is cell-based. The source says: (§1) GAPDH was used as loading control. […] GAPDH was used as loading control. […] GAPDH was used as loading control. […] GAPDH was used as loading control.
On the technique in general: A western blot detects proteins with antibodies after separation by electrophoresis.

In data set [4] the test system is BV2 cells. Description: Microglia phagocytosis and clearance of FITC-Aβ42 (flow cytometry). In kind it is cell-based. Conditions: 20 μM FITC-Aβ42, 2 h (phagocytosis) then 24 h in FITC-Aβ-free medium (clearance), Dectin-1-deficient BV2 cells. For orientation: In flow cytometry, cells or beads pass a laser one at a time.
Description: After incubation, the medium containing FITC-Aβ was removed, and the cells were washed three times with 1xPBS. BV2 cells were collected by centrifugation at 3000rpm for 5min, and resuspended in ice-cold 1xPBS solution. […] Cells were cultured in the FITC-Aβ-free medium for another 24 hours. Collect the cells and detect the level of intracellular Aβ by flow cytometry.
In data set [5] the test system is Syk/NF-κB. Description: Syk/NF-κB activation in BV2 cells (western blot). Conditions: Aβ42-stimulated BV2 cells, siRNA targeting Dectin-1. Type of data set: cell-based.
Source text: as §1

Data set [6] has as its system NF-κB p65. Briefly: p65 nuclear translocation in BV2 cells (immunofluorescence). Type of data set: cell-based. Conditions: Aβ42-stimulated BV2 cells, siRNA targeting Dectin-1. Here is the method: Properly treated BV2 cells were fixed in 4% paraformaldehyde (PFA) for 15-20 min. The BV2 cells were then incubated with 1x PBS containing 0.1% Triton X-100 (PBST) for 20 min to increase membrane permeability. After block with 1% BSA for 1 h at room temperature, the primary antibody (1:100) was added and incubate overnight at 4 °C. Next day, the cells were washed three times with 1xPBS and incubated with fluorophore conjugated secondary antibody (1:500) for 2h. Finally, one drop of antifade mounting medium with DAPI (P0131, Beyotime) was added to stain the Nuclei. Then, sections were observed and analyzed under a Nikon A1 confocal microscope.
(§2) Figure 5 Dectin-1 interference prevents Aβ42-induced inflammatory response in BV2 cells. (A) Time-course of Dectin-1-Syk interaction. […] (B) HEK-293T cells were transfected with Flag-tagged Dectin-1 (Flag-D1) and HA-tagged Dectin-1 (HA-D1). […] (C) Time-course of Syk phosphorylation. […] Total proteins were extracted and probed for p-Syk and Syk levels. GAPDH was used as loading control. (D) Dose-course of Syk phosphorylation. […] Total proteins were used to measure p-Syk and Syk levels. GAPDH was used as loading control. (E) Determination of Dectin-1 interference efficiency in BV2 cells. […] (H) TNFα release in cell supernatant measured by ELISA. (I) IL-1β release in in cell supernatant measured by ELISA. […]

For data set [7], the system named is TNF-α and IL-1β. Briefly: TNF-α and IL-1β release from BV2 cells (ELISA). In kind it is cell-based. Conditions: Aβ42-stimulated BV2 cells, cell supernatant. As for the experimental part:
After behavior test, blood samples from each group of mice were collected. Serum was obtained by centrifuge at 12000 rpm for 10 min and the levels of TNF-α and IL-1β were measured using ELISA kits. Briefly, samples were added to the wells with a biotin-conjugated antibody specific to TNF-α or IL-1β. Then, Avidin conjugated to Horseradish Peroxidase (HRP) was added to each microplate well and incubated. […] Finally, stop solution was added to stop the reaction and the color change were measured at a wavelength of 450 nm by a microplate reader. The concentration of TNF-α or IL-1β in the samples were then determined by comparing the OD value of the samples to the standard curve.
as §2
(In general: An ELISA detects its analyte on a solid surface through an enzyme-linked reagent.)

The test system of data set [8] is Tnfa, Il1b, IL-6, Cox2, and Inos. Briefly: mRNA levels of inflammatory genes (real-time qPCR). Conditions: Aβ42-stimulated, normalized to GAPDH. Type of data set: cell-based. Here is the method: Total RNA was isolated from cultured BV2 cells and brain tissues using TRIzol reagent (Thermo Fisher, 15596026) by standard techniques. Total RNA concentration was measured by a spectrophotometer. Then, PrimeScript RT-reagent Kit (Takara, RR037A) was used for cDNA synthesis. Real-time PCR amplification reactions were carried out on CFX96 Touch Real-Time PCR Detection System (Bio-Rad) using TB Green Premix Ex Taq II (Takara; RR820A). Quantification of the mRNA expression was calculated by […] method with GAPDH normalization. Primer sequences used in this study were presented in Supplementary Table S2.
Figure 5 Dectin-1 interference prevents Aβ42-induced inflammatory response in BV2 cells. (A) Time-course of Dectin-1-Syk interaction. […] (B) HEK-293T cells were transfected with Flag-tagged Dectin-1 (Flag-D1) and HA-tagged Dectin-1 (HA-D1). […] (C) Time-course of Syk phosphorylation. […] Total proteins were extracted and probed for p-Syk and Syk levels. GAPDH was used as loading control. (D) Dose-course of Syk phosphorylation. […] Total proteins were used to measure p-Syk and Syk levels. GAPDH was used as loading control. (E) Determination of Dectin-1 interference efficiency in BV2 cells. Total proteins were extracted and probed for p-Syk and Syk levels. […] (H) TNFα release in cell supernatant measured by ELISA. (I) IL-1β release in in cell supernatant measured by ELISA. […]

The test system of data set [9] is PC12 cells. Description: PC12 damage by BV2-conditioned medium. Type of data set: cell-based. Conditions: medium of Dectin-1-deficient BV2 cells exposed to Aβ42, PC12 treated 24 h.
Description: To test cellular apoptosis, TUNEL assay was performed (C1098, Beyotime, Shanghai, China). For cells: Properly treated BV2 cells were fixed with 4% PFA for 20 min and washed with PBST for 3 times. Then cells were incubated with TUNEL test solution (5 μl of TdT enzyme and 45 μl of fluorescent labeling solution) under dark condition for 1h. After washing with 1xPBS for three times, nuclei were stained with DAPI. The apoptotic cells (green fluorescence) were observed under fluorescent microscopy and calculated as a percentage of the total number of cells. For brain tissue: Processed tissue samples were incubated with 50 μl of TUNEL reaction mixture for 1h at 37℃ under dark conditions. Color developed in DAB coloring solution. Apoptosis index (brown color) in the hippocampus area were measured using this formula: apoptosis index (%) = (apoptotic neurons / total neurons) × 100%.

Regarding “APP/β-amyloid: APP/β-amyloid protein used as bait with lysates from WT and Aβ42 brain tissues”, the “binding to Dectin-1 (co-IP)” value in [1] is reported as “binds to the Dectin-1 protein in these lysates”.
With “Bio-Aβ42: biotin-labeled Amyloid beta peptide, obtained from GL Biochem”, the “binding to Dectin-1 (pull-down/Co-IP)” value in data set [2] is given as “Co-IP analysis further confirmed this result”. Also, the “Syk phosphorylation by Bio-Aβ42” value in data set [3] was “retained the Dectin-1 activating activity of Aβ42, as evidenced by the increased phosphorylation of Syk”.
As for “FITC-Aβ42: Aβ42 linked with a FITC label”, in data set [4], the “phagocytosis and clearance of FITC-Aβ42, effect of Dectin-1 deficiency” value was “did not affect the fluorescence intensity of Aβ”.
On to “siD1: siRNA targeting Dectin-1 gene; sense 5’-GGAGAAAUCCAGAGGAGAATT-3’, antisense 5’-UUCUCCUCUGGAUUUCUCCTT-3’ (chemistry not given here)”, for which, in data set [5], the “Syk/NF-κB activity after Dectin-1 knockdown” value was “this increased activity of Syk/NF-κB was not seen in Dectin-1-deficient BV2 cells”. In addition, the “p65 nuclear translocation after Dectin-1 knockdown” value in [6] was “remarkably inhibited Aβ42-induced p65 nuclear translocation”. In [7], the “TNF-α and IL-1β release after Dectin-1 knockdown” value was “decreased the release of the inflammatory factors TNF-α and IL-1β”. In data set [8], the “mRNA levels of inflammatory genes Tnfa, Il1b, IL-6, Cox2, Inos” value is “significantly reversed”. In data set [9], the “PC12 damage by medium of siD1-treated microglia” value is “failed to damage PC12 cells”.
